Test results taken from patent publication US20030232834A1, “Combination therapy for the prophylaxis and treatment of hyperlipidemic conditions and disorders” (priority 2002, published 2003).

What was measured:
Male beagle dogs = assay: Serum triglyceride in beagle dogs; format: in vivo, dog; details: pravastatin 10 mg/kg/day dosed Weeks 1-11; Week 10; mean ± SEM, n=6
Description: Following this initial four week dose-ranging study, dogs from the two groups receiving 10 mg/kg/day pravastatin (a.m. and p.m. dosing groups) were randomized into two new treatment groups based on serum total cholesterol levels to initiate the combination treatment study. One group received an empty capsule (a.m. dosing) and 10 mg/kg/day pravastatin (p.m. dosing) and the other received 4.0 mg/kg/day compound A-5 (a.m. dosing) and 10 mg/kg/day pravastatin (p.m. dosing). A third group that had received empty capsules (vehicle) in the dose-ranging study was used for compound A-5 monotherapy and was administered 4.0 mg/kg/day compound A-5 (a.m. dosing) and an empty capsule (p.m. dosing). […]
Blood was collected from the cephalic vein of each dog into serum separator tubes. […] Commercial calibrator and quality control materials were analyzed with each run to verify assay accuracy and precision. […]
Serum lipid measurements were obtained as described in Example 3 above except that blood was collected from either the cephalic or jugular vein of each dog into serum separator tubes and the blood was centrifuged at 2000 rpm for 20 minutes. Table X-4A below reports the data measured on the effect of the compound A-5/pravastatin combination therapy on serum total cholesterol. […]

[1] = Water uptake experiments (Dynamic Vapor Sorption); format: physicochemical; details: equilibrated under 80% relative humidity (RH) air at 25° C.
Description: A dry sample of the crystalline form having a melting point or a decomposition point of about 278° C. to about 285° C. (i.e., Form II) typically gains less than about 1% of its own weight when equilibrated under 80% relative humidity (RH) air at 25° C. […] For the present purposes, the term “essentially 0% RH” means less than about 1% RH. The term “equilibrated” means that the change in weight of a sample over time at a given relative humidity is less than 0.0003% ((dm/dt)/m0×100, where m is mass in mg, m0 is initial mass, and t is time in minutes).
Water sorption experiments are performed on a Dynamic Vapor Sorption (DVS) apparatus (DVS-1000 manufactured by Surface Measurements Systems, Inc.). Experiments are performed at 25° C. by initially drying the material of interest (about 10 mg sample) from 30% relative humidity (RH) (ambient room condition) to about 9% RH in a stepwise fashion (10% RH step) by purging with dry nitrogen until no further weight change was observed. The samples are then exposed to a stepwise (10% RH steps) increase in RH from about 0 to about 90% RH. Each successive step is initiated when the change in weight over time at the relative humidity was less than 0.0003% ((dm/dt)/m0×100, where m is mass in mg, m0 is initial mass, and t is time in minutes). […] The data are collected on a computer and analyzed using SMS' proprietary MS-Excel macro interface software.

weight gain of a dry sample (of its own weight) [1]	SMILES	TOTAL SERUM TRIGLYCERIDE (Male beagle dogs) [mg/dL]
–	CC[C@H](C)C(=O)O[C@H]1C[C@H](O)C=C2C=C[C@H](C)[C@H](CC[C@@H](O)C[C@@H](O)CC(=O)O)[C@H]21 [pravastatin, Pravastatin]	43 ± 5
less than 1%	CCCCC1(CCCC)CS(=O)(=O)c2ccc(N(C)C)cc2[C@@H](c2ccc(OCc3ccc(C[N+]45CCN(CC4)CC5)cc3)cc2)[C@H]1O.[Cl-] [Form II, (4R,5R)-1-((4-(4-(3,3-dibutyl-7-(dimethylamino)-2,3,4,5-tetrahydro-4-hydroxy-1,1-dioxido-1-benzithiepin-5-yl)phenoxy)methyl)phenyl)methyl-4-aza-1-azoniabicyclo[2.2.2]octane chloride]	–
